Laboratory results as given in US7794960B2, “Predictive biomarkers in cancer therapy” (GlaxoSmithKline LLC, priority 2004, dated 2010).

What was measured:
[1] = test system: metastatic cancers overexpressing ErbB2 and/or expressing ErbB1; experiment: Clinical response (RECIST) in open-label randomized dose-cohort trial; assay type: in vivo, human; settings: for Partial Response (PR), number of patients / Stable Disease (SD), number of patients: all subjects
Method: Clinical response was assessed after 8 weeks of therapy.
The Institutional Review Boards at the Sarah Cannon Cancer Center, University of North Carolina-Chapel Hill/Lineberger Comprehensive Cancer Center, Duke University Medical Center, and Case Western Reserve Medical Center approved this study.
Patients with a positive response to treatment (CR, PR or SD) continued on therapy with re-staging every 8 weeks thereafter. Patients were withdrawn from study upon evidence of disease progression or intolerable side effects.

[2] = test system: p-ErbB1; experiment: Quantitative IHC of sequential tumor biopsies (Day 0 vs Day 21): p-ErbB1; assay type: in vivo, human; settings: for pErbB1 % change: Day 21 vs Day 0
[3] = test system: EGFR autophosphorylation; settings: tumor cell lines that overexpress these receptors; cited from earlier work
[4] = test system: ErbB2 autophosphorylation; settings: tumor cell lines that overexpress these receptors; cited from earlier work
[5] = test system: ErbB1; experiment: Quantitative IHC of sequential tumor biopsies (Day 0 vs Day 21): ErbB1; settings: 900 mg/day; for ErbB1 % change: Day 21 vs Day 0
Text: (§1) Patients were monitored by physical examination, clinical chemistry and hematology blood tests, and formally re-staged after 8 weeks of therapy. […] Response was classified as Complete Response (CR), Partial Response (PR), Stable Disease (SD) or Progressive Disease (PD). Patients with CR, PR or SD were considered to have a positive clinical response. Patients with Progressive Disease (PD) were considered to have a negative clinical response.
(§2) Biopsies were fixed in 10% neutral buffered formalin (NBF) and paraffin-embedded sections prepared. Hematoxylin and eosin (H&E) staining was used to confirm for the presence of tumor.
(§3) The VMSI “I-View” detection kit was used for all three of the VMSI pre-diluted primary antibodies. Erk1/2 (1:1200), and TGFalpha (1:20) were immunostained using the “BenchMark” with I-VIEW detection chemistry. Phospho-Erk1/2 (1:100) and p-Akt (1:75) were immunostained using a labeled streptavidin peroxidase technique. […] Slides were placed onto the Autostainer (Dako, Carpinteria, Calif.) and used the labeled streptavidin-biotin peroxidase method (LSAB2 kit, Dako) as the detection chemistry. After staining, ErbB1, ErbB2, Erk1/2, p-Akt, p-Erk1/2, p-ErbB1, p-ErbB2, cyclin D1, IGF-IR, and TGFalpha were counterstained manually with 4% ethyl green (Sigma-Aldrich). […] Investigators preparing and analyzing tissue sections were blinded to both patient tumor type and response to therapy.
(§4) Expression of ErbB1, ErbB2, p-ErbB1, p-ErbB2, Erk1/2, p-Erk1/2, Akt, p-Akt, TGFalpha, IGF-IR and cyclin D1 was assessed by IHC with automated image analysis using established assays; OD values were assigned to each specimen.
(§5) For purposes of this Example, “inhibition” of a biomarker refers to a decrease in the level of the biomarker, assessed by comparing the level detected in a Day 0 biopsy from a patient to the level detected in a Day 21 biopsy from the same patient.

[6] = test system: ErbB2; experiment: Quantitative IHC of sequential tumor biopsies (Day 0 vs Day 21): ErbB2; settings: 900 mg/day; for ErbB2 % change: Day 21 vs Day 0
Text: as §1, §2, §3, §4, §5

[7] = test system: p-Akt; experiment: Quantitative IHC of sequential tumor biopsies (Day 0 vs Day 21): p-Akt; settings: for pAkt % change: Day 21 vs Day 0; for p-Akt inhibition (Day 21 vs Day 0): PR
Text: as §1, §2, §3, §4, §5

[8] = test system: p-ErbB2; experiment: Quantitative IHC of sequential tumor biopsies (Day 0 vs Day 21): p-ErbB2; settings: for pErbB2 % change: Day 21 vs Day 0
Text: as §1, §2, §3, §4, §5

[9] = test system: p-Erk1/2; experiment: Quantitative IHC of sequential tumor biopsies (Day 0 vs Day 21): p-Erk1/2
Text: as §1, §2, §3, §4, §5

[10] = test system: TGFalpha; experiment: Quantitative IHC of sequential tumor biopsies (Day 0 vs Day 21): TGFalpha; settings: 900 mg/day; for TGFa % change: Day 21 vs Day 0
Text: as §1, §2, §3, §4, §5

[11] = test system: cyclin D1; experiment: Quantitative IHC of sequential tumor biopsies (Day 0 vs Day 21): cyclin D1; settings: for Cyclin D % change: Day 21 vs Day 0
Text: as §1, §2, §3, §4, §5

[12] = test system: tumor cells; experiment: TUNEL assay of sequential tumor biopsies (Day 0 vs Day 21), tumor cell apoptosis; settings: for TUNEL % change: Day 21 vs Day 0; for TUNEL % change / TUNEL score (percent tumor cells staining positive), Day 21: 900 mg/day
Text: A commonly used method is TUNEL (Terminal deoxynucleotidyl Transferase Biotin-dUTP Nick End Labeling). One of the characteristics of apoptosis is the degradation of DNA after the activation of Ca/Mg dependent endonucleases. This DNA cleavage leads to strand breaks within the DNA. The TUNEL method identifies apoptotic cells in situ by using terminal deoxynucleotidyl transferase (TdT) to transfer biotin-dUTP to the free 3′-OH of cleaved DNA. The biotin-labeled cleavage sites are then visualized by reaction with fluorescein conjugated avidin (avidin-FITC).
as §1
TUNEL assay (Roche Diagnostics, Indianapolis, Ind.) was performed according to the manufacturer's instructions. Investigators preparing and analyzing tissue sections were blinded to both patient tumor type and response to therapy.
TUNEL scores represent the percent tumor cells staining positive.
For purposes of this Example, an “increase” in TUNEL score refers to an increased TUNEL score in the Day 21 biopsy, compared to the TUNEL score of the Day 0 biopsy from the same patient.
TUNEL staining is a quantitative measurement of DNA fragmentation characteristic of cellular apoptosis.

[13] = Breast, 30 enrolled, 500-1,600 mg orally once daily
[14] = Carcinoma of Unknown Primary, 5 enrolled
[15] = breast cancer patient, 900 mg/day, Progressive Disease
[16] = refractory Inflammatory Breast Cancer patient, 900 mg/day, Partial Response
[17] = additional patient with non-inflammatory metastatic breast cancer, PR, 1200 mg/d, 21 days
[18] = patient with breast cancer, PD after 8 weeks (Table 5)
[19] = patient with non-inflammatory metastatic breast cancer, PR, 900 mg/day
[20] = second patient with IBC, PR (Table 4)
[21] = breast cancer patient, Progressive Disease
[22] = refractory Inflammatory Breast Cancer patient, Partial Response
[23] = first patient with IBC, PR, 650 mg/d, 21 days

## CS(=O)(=O)CCNCc1ccc(-c2ccc3ncnc(Nc4ccc(OCc5cccc(F)c5)c(Cl)c4)c3c2)o1 [lapatinib]
[1]; 33 patients with sequential tumor biopsies, breast cancer
  Partial responses (PR), number of patients: 4
[1]; 33 patients with sequential tumor biopsies, various malignancies
  Disease stabilization (SD), number of patients: 11
[1]; [13]
  Partial Response (PR), number of patients: 4
  Stable Disease (SD), number of patients: 10
[1]; [14]
  Partial Response (PR), number of patients: 0
  Stable Disease (SD), number of patients: 5
[1]; Colon, 7 enrolled
  Partial Response (PR), number of patients: 0
  Stable Disease (SD), number of patients: 2
[1]; Head and Neck, 5 enrolled
  Partial Response (PR), number of patients: 0
  Stable Disease (SD), number of patients: 3
[1]; Lung, 11 enrolled
  Partial Response (PR), number of patients: 0
  Stable Disease (SD), number of patients: 6
[1]; Other tumor types, 5 enrolled
  Partial Response (PR), number of patients: 0
  Stable Disease (SD), number of patients: 4
[1]; Ovarian, 4 enrolled
  Partial Response (PR), number of patients: 0
  Stable Disease (SD), number of patients: 2
[1]; Total, 67 enrolled
  Partial Response (PR), number of patients: 4
  Stable Disease (SD), number of patients: 32
[1]; dose 650 mg/day
  Number of patients with Partial Response: 1
[1]; dose 900 mg/day
  Number of patients with Partial Response: 1
[1]; dose 1200 mg/day
  Number of patients with Partial Response: 2
[1]; patients with Partial Response
  Response Duration, median: 5+ months
[2]; [15]
  pErbB1 % change: −81%
  pErbB1 (IHC OD value), Day 21: 3
[2]; [16]
  pErbB1 % change: −80%
  pErbB1 (IHC OD value), Day 21: 1
[2]; [17]
  p-ErbB1 inhibition (Day 21 vs Day 0): not associated with any appreciable inhibition
[2]; [18]
  p-ErbB1 inhibition (Day 21 vs Day 0): 81%
[2]; [19]
  p-ErbB1 inhibition (Day 21 vs Day 0): 31%
[2]; [20]
  p-ErbB1 inhibition (Day 21 vs Day 0): 80%
[3]
  EGFR autophosphorylation: inhibits
[4]
  ErbB2 autophosphorylation: inhibits
[5]; [21]
  ErbB1 % change: +35%
  ErbB1 (IHC OD value), Day 21: 19
[5]; [22]
  ErbB1 % change: −9%
  ErbB1 (IHC OD value), Day 21: 32
[6]; [21]
  ErbB2 % change: −27%
  ErbB2 (IHC OD value), Day 21: 32
[6]; [22]
  ErbB2 % change: −7%
  ErbB2 (IHC OD value), Day 21: 65
[7]; [15]
  pAkt % change: −8%
  pAkt (IHC OD value), Day 21: 33
[7]; [16]
  pAkt % change: −0%
  pAkt (IHC OD value), Day 21: 20
[7]; additional patient with non-inflammatory metastatic breast cancer, 1200 mg/d, 21 days
  p-Akt inhibition (Day 21 vs Day 0): 34%
[7]; first patient with IBC, 650 mg/d, 21 days
  p-Akt inhibition (Day 21 vs Day 0): 90%
[7]; [18]
  p-Akt change (Day 21 vs Day 0): essential unchanged
[7]; patient with non-inflammatory metastatic breast cancer, 900 mg/day
  p-Akt inhibition (Day 21 vs Day 0): 44%
[7]; [20]
  p-Akt change (Day 21 vs Day 0): essentially unchanged
[8]; [15]
  pErbB2 % change: 0%
  pErbB2 (IHC OD value), Day 21: 3
[8]; [16]
  pErbB2 % change: −83%
  pErbB2 (IHC OD value), Day 21: 5
[8]; [17]
  p-ErbB2 inhibition (Day 21 vs Day 0): not associated with any appreciable inhibition
[8]; [23]
  p-ErbB2 inhibition (Day 21 vs Day 0): 72%
[8]; [19]
  p-ErbB2 change (Day 21 vs Day 0): remained unchanged
[8]; [20]
  p-ErbB2 inhibition (Day 21 vs Day 0): 83%
[9]; [17]
  p-Erk1/2 inhibition (Day 21 vs Day 0): complete inhibition
[9]; [18]
  p-Erk1/2 inhibition (Day 21 vs Day 0): 87%
[9]; [19]
  p-Erk1/2 inhibition (Day 21 vs Day 0): completely inhibited
[9]; [20]
  p-Erk1/2 inhibition (Day 21 vs Day 0): 68%
[10]; [21]
  TGFa % change: −53%
  TGFa (IHC OD value), Day 21: 23
[10]; [22]
  TGFa % change: −61%
  TGFa (IHC OD value), Day 21: 21
[11]; [15]
  Cyclin D % change: −76%
  Cyclin D (IHC OD value), Day 21: 10
[11]; [16]
  Cyclin D % change: −57%
  Cyclin D (IHC OD value), Day 21: 12
[11]; [17]
  cyclin D inhibition (Day 21 vs Day 0): 90%
[11]; [23]
  cyclin D1 inhibition (Day 21 vs Day 0): 49%
[11]; [18]
  cyclin D1 inhibition (Day 21 vs Day 0): 76%
[11]; [19]
  cyclin D1 inhibition (Day 21 vs Day 0): 90%
[11]; [20]
  cyclin D1 inhibition (Day 21 vs Day 0): 57%
[12]; [21]
  TUNEL % change: 0%
  TUNEL score (percent tumor cells staining positive), Day 21: 0
[12]; [22]
  TUNEL % change: +2400%
  TUNEL score (percent tumor cells staining positive), Day 21: 72
[12]; all four patients achieving Partial Response
  Percentage of tumor cells stained positive by TUNEL, Day 21 vs Day 0: markedly increased
[12]; patient with ErbB1-overexpressing head and neck carcinoma, tumor regression after 8 weeks not qualifying as PR
  TUNEL score, Day 21 vs Day 0: increased
[12]; [18]
  TUNEL score, Day 21 vs Day 0: did not show an increase
[12]; patients with PD at 8 weeks
  TUNEL score, Day 21 vs Day 0: did not increase
